{"source": "patent US6103888A", "about": "“Mammalian cationic proteins having lipopolysaccharide binding and anti-coagulant activity” (priority 1999, dated 2000)", "key": {"RAW 264.7 cells": {"system": "RAW 264.7 cells", "assay": "LPS- or IFNγ-induced reactive nitrogen intermediate (RNI) production, Griess nitrite assay", "format": "cell-based, murine", "experimental": "From the sequence of the CAP18 cDNA, it was apparent that the putative N-terminal peptide of CAP18 was in fact an internal fragment of the CAP18 protein. We therefore tried to reconfirm the original protein sequence. Neutrophil-derived heparin bound cationic proteins were prepared as described above and applied to a C18 reverse phase HPLC (FIG. 1). We sequenced the major peaks. Peaks at fractions 14.5 and 15.2 correspond to defensins MCP1 and MCP2 (Territo et al. (1989) J. Clin. Invest. 84:2017-2019), respectively. Fraction 25.8 is macrophage related protein 14 (MRP14) (Odink et al. (1987) Nature 330:80-82). The fraction at 20.3 minutes corresponds to a fragment of CAP18 of approximately 4-5 kD. […] The murine macrophage cell line RAW 264.7 (obtained from ATCC) and thioglycollate-elicited murine peritoneal exudate cells are used to produce RNI. Cells are cultured at 1×10^6 /ml. in RPMI-1640 +2.5% FCS in 24 well plates in the presence or absence of different concentrations of LPS or murine rlFNγ. After 24 hr. incubation at 37° C., the cell free supernatant is collected and tested for the presence of RNI. Accumulation of nitrite in the medium is measured by a calorimetric assay based on the Griess reaction (Green et al. (1982) Anal. Biochem. 126:11) using sodium nitrite as standards. Sample (50 μl) is mixed with 50 μl of Griess reagent (1% sulfanilamide, 0.1% naphthalene diamine dihydrochloride, 2.5% H3 PO4) and after 10 min. at room temperature absorbance is read at 570 nm."}, "[1]": {"system": "Salmonella minnesota ReLPS sensitized sheep erythrocytes", "assay": "LPS hemagglutination assay (MAC)", "format": "binding", "experimental": "(§1) For hemagglutination assays, erythrocytes were sensitized with LPS as follows. One ml of 1% erythrocyte suspension (human 0 type, C3H/HeN mouse or sheep) was mixed with 0.2 ml of LPS solution and incubated at 37° C. for 30 min, followed by washing with phosphate buffered saline (PBS), and then the concentration of suspension was adjusted to 1.0%. In the case of S-LPS, the solution was heated at 100° C. for 1 hour before sensitization of erythrocytes. […] Activity of CAP was expressed as a minimum agglutinating concentration (MAC) of CAP. According to the method of Kirikae et al. (1986) Microbiol. Immunol. 30:269-274, 50 μl of 2-fold serial dilution of Re-LPS was added to 50 μl of 1.0% rabbit erythrocyte suspension, and incubated at 37° C. for 3 hour. Minimum agglutinating concentration of Re-LPS was expressed as 1 HA unit."}, "E. coli 0111:B4 LPS": {"system": "E. coli 0111:B4 LPS", "assay": "Inhibition of RNIP-mediated hemagglutination by LPS preparation", "format": "binding", "conditions": "Peptide #36-1 16 μg/ml, RNIP (#197) 25 μg/ml preincubated with LPS 37° 30 minutes", "experimental": "as §1\n(§2) Another series of experiments was performed to determine if the #36-1 and #197 (RNIP) peptides were capable of binding to LPS from various species of Gram-negative bacteria. For these experiments, sheep red blood cells were sensitized with Salmonella minnesota Re-LPS. Peptides #36-1 and #197 (RNIP) were preincubated with various preparations of LPS. Both peptides bind to a diverse group of lipopolysaccharides.\n(§3) +Peptide #361 (16 μg/ml) and RNIP (#197) (25 μg/ml) were\n(§4) preincubated with each LPS preparation at 37° for 30 minutes, and\n(§5) each reaction mixture was added to sheep erythrocytes sensitized with […]"}, "E. coli 0127:B8 LPS": {"system": "E. coli 0127:B8 LPS", "assay": "Inhibition of RNIP-mediated hemagglutination by LPS preparation", "format": "binding", "conditions": "Peptide #36-1 16 μg/ml, RNIP (#197) 25 μg/ml preincubated with LPS 37° 30 minutes", "experimental": "as §1, §2, §3, §4, §5"}, "E. coli 055:B5 LPS": {"system": "E. coli 055:B5 LPS", "assay": "Inhibition of RNIP-mediated hemagglutination by LPS preparation", "format": "binding", "conditions": "Peptide #36-1 16 μg/ml, RNIP (#197) 25 μg/ml preincubated with LPS 37° 30 minutes", "experimental": "as §1, §2, §3, §4, §5"}, "E. coli J5 LPS": {"system": "E. coli J5 LPS", "assay": "Inhibition of RNIP-mediated hemagglutination by LPS preparation", "format": "binding", "conditions": "Peptide #36-1 16 μg/ml, RNIP (#197) 25 μg/ml preincubated with LPS 37° 30 minutes", "experimental": "as §1, §2, §3, §4, §5"}, "[2]": {"system": "Klebsiella pneumoniae LPS", "assay": "Inhibition of RNIP-mediated hemagglutination by LPS preparation", "format": "binding", "conditions": "Peptide #36-1 16 μg/ml, RNIP (#197) 25 μg/ml preincubated with LPS 37° 30 minutes", "experimental": "as §1, §2, §3, §4, §5"}, "[3]": {"system": "Pseudomonas aeruginosa F-D Type I LPS", "assay": "Inhibition of RNIP-mediated hemagglutination by LPS preparation", "format": "binding", "conditions": "Peptide #36-1 16 μg/ml, RNIP (#197) 25 μg/ml preincubated with LPS 37° 30 minutes", "experimental": "as §1, §2, §3, §4, §5"}, "[4]": {"system": "Salmonella minnesota R595 LPS", "assay": "Inhibition of RNIP-mediated hemagglutination by LPS preparation", "format": "binding", "conditions": "Peptide #36-1 16 μg/ml, RNIP (#197) 25 μg/ml preincubated with LPS 37° 30 minutes", "experimental": "as §1, §2, §3, §4, §5"}, "[5]": {"system": "thioglycollate-stimulated murine peritoneal macrophages", "assay": "LPS-induced tissue factor generation by macrophages (clotting assay)", "format": "cell-based", "conditions": "peptides 1 μg/ml incubated with S. minnesota smooth LPS 5 minutes; 6 hr", "experimental": "Tissue factor assay. Salmonella minnesota smooth LPS was incubated with each peptide (1 μg/ml) for 5 min., then the mixture was added to peritoneal murine macrophages obtained 4 days after thioglycollate stimulation. Cells were cultured for 6 hours prior to assay of tissue factor by clotting assay.\nVarious concentrations of Salmonella minnesota smooth LPS were incubated with each peptide (197 (RNIP), 36-1, 32-1, and 50-2) at 37° C. for 5 minutes prior to mixing with thioglycollate-stimulated murine peritoneal macrophages. Production of tissue factor after 6 hr. was measured by clotting assay. […] In the absence of LPS no tissue factor is synthesized by these cells."}, "Human plasma [6]": {"system": "Human plasma", "assay": "Prothrombin time (PT)", "format": "biochemical", "experimental": "Prothrombin time (PT). Human plasma (100 μl) was incubated with 100 μl of each peptide at 37° C. for 3 min., then 100 μl of tissue factor (250 μg/ml) CaCl2 was added and clotting time was measured."}, "Human plasma [7]": {"system": "Human plasma", "assay": "Partial thromboplastin time (PTT)", "format": "biochemical", "conditions": "dose dependent", "experimental": "Partial thromboplastin time (PTT). Human plasma (100 μl) was incubated with each peptide (100 μl) at 37° C. for 3 min., then 100 μl of CaCl2 containing phospholipid was added and clotting time was measured."}, "factor Xa": {"biological_target": "T1, factor Xa (Homo sapiens, UniProt P00742)", "T1 construct": "purchased Sigma Chemical Co., St. Louis, Mo", "T1 sequence (P00742 235-488 limits assumed)": "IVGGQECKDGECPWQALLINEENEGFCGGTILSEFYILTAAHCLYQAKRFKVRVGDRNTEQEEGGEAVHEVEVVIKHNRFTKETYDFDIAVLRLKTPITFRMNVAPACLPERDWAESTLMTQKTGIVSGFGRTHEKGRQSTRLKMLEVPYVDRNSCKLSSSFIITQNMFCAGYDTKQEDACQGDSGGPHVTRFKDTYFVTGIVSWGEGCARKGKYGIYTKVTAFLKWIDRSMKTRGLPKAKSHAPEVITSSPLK", "T1 sequence (P00742 41-179 limits assumed)": "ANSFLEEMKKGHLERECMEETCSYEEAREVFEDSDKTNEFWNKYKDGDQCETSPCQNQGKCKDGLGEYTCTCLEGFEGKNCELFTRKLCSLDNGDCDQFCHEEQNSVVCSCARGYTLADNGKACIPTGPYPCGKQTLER", "assay": "Direct Xa inhibition using Xa substrate S2222", "format": "biochemical", "conditions": "concentrations over 10 μg/ml", "excerpt": "Clotting method: Human plasma (Ortho plasma control, Ortho Diagnostic Co.). ATPP reagent(Organo-technika, Tokyo, Japan). Standard tissue factor, rabbit brain thromboplastin (Simplastin, ONO Pharmaceutical, Tokyo, Japan). Purified human factor VII, factor X, factor Xa (Sigma Chemical Co., St. Louis, Mo.). Russell Viper venom (RVV) and Echis Carinatus venom (ECV, Sigma Co.).\nSynthetic chromogenic substrate method: Substrate for factor Xa, S2222 (Kabi, Bz-Ile-Glu-Arg-pNA) was used. Substrate for factor II (prothrombin), Boc-Val-Pro-Arg-pNA (Sigma Chemical Co.) was used."}, "factor X": {"biological_target": "T2, factor X (Homo sapiens, UniProt P00742)", "T2 construct": "purchased Sigma Chemical Co., St. Louis, Mo", "T2 sequence (P00742 183-488)": "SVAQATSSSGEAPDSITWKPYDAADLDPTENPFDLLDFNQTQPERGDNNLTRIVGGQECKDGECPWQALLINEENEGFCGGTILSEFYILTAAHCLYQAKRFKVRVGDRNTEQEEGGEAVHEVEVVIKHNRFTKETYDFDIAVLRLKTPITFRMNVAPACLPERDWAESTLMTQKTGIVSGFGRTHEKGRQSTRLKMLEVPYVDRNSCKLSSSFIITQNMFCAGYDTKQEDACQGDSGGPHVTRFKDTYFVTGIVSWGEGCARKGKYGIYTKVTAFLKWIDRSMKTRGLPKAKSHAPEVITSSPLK", "T2 sequence (P00742 41-179)": "as the sequence (P00742 41-179 limits assumed) above", "assay": "Factor X activation by tissue factor and factor VII, synthetic substrate S-2222", "format": "biochemical", "experimental": "Factor Xa activity using synthetic substrate. A reaction mixture of factor VII (1 unit/ml, 200 μl), factor X (1 unit/ml, 200 μl), tissue factor (2.5 mg/ml, 50 μl), 25 mM-CaCl2 (50 μl) and 50 μl of several concentration of peptide was incubated at 37° C. for 10 min. To 200 Al of the reaction mixture, 60 μl of 4 mM S-2222, a synthetic substrate for factor Xa, and 340 μl of Tris-HCl buffer, pH 8.2, was added and further incubated for 15 min. The reaction was stopped by adding 60 μl of 50% acetic acid, and OD for p-nitroaniline was read at 405 nm."}, "prothrombin (factor II)": {"biological_target": "prothrombin (factor II) (Homo sapiens, UniProt P00734)", "assay": "Prothrombin activation by Echis Carinatus venom (ECV)", "format": "biochemical", "experimental": "Prothrombin activation by Echis Carinatus venom (ECV). A reaction mixture of prothrombin (factor II) (0.1 unit/ml, 200 μl), ECV (1 unit/ml, 200 μl), various concentration of peptide (70 μl), 50 μl of 25 mM-CaCl2 and 180 μl of Tris buffer was incubated at 37° C. for 10 min. To 300 μl of the reaction mixture, 60 μl of 4 mM-thrombin substrate and 240 μl of buffer was added and further incubated for 15 min."}, "coagulation": {"system": "coagulation", "assay": "Anti-coagulant activity of human RNIP (preliminary studies)", "format": "biochemical"}}, "note": "Read-outs that look alike come from different tables or passages of the source.", "data": [{"substance": "36-1: synthetic rabbit RNIP fragment, amino acids 135-166 of SEQ ID NO:4 (GLRKRLRKFRNKIKEKLKKIGQKIQGLLPKLA) [Peptide 36-1]", "values": [{"measurement": "concentrations at which peptides are active in the bioassay", "setting": "RAW 264.7 cells; day-to-day variation in the bioassay", "result": "10 to 50", "unit": "nM"}, {"measurement": "inhibition of LPS-induced RNI production (in words)", "setting": "RAW 264.7 cells; macrophages / RAW 264.7 cells", "result": "active"}, {"measurement": "Hemagglutination [MAC], minimum agglutinating concentration", "setting": "[1]", "result": 3.9, "unit": "µg/mL"}, {"measurement": "MIC, minimal inhibitory concentration of LPS", "setting": "E. coli 0111:B4 LPS", "result": 15.6, "unit": "µg/mL"}, {"measurement": "MIC, minimal inhibitory concentration of LPS", "setting": "E. coli 0127:B8 LPS", "result": 15.6, "unit": "µg/mL"}, {"measurement": "MIC, minimal inhibitory concentration of LPS", "setting": "E. coli 055:B5 LPS", "result": 15.6, "unit": "µg/mL"}, {"measurement": "MIC, minimal inhibitory concentration of LPS", "setting": "E. coli J5 LPS", "result": 7.8, "unit": "µg/mL"}, {"measurement": "MIC, minimal inhibitory concentration of LPS", "setting": "[2]", "result": 31.3, "unit": "µg/mL"}, {"measurement": "MIC, minimal inhibitory concentration of LPS", "setting": "[3]", "result": 3.9, "unit": "µg/mL"}, {"measurement": "MIC, minimal inhibitory concentration of LPS", "setting": "[4]", "result": 15.6, "unit": "µg/mL"}, {"measurement": "inhibition of LPS induced tissue factor (in words)", "setting": "[5]", "result": "inhibition"}, {"measurement": "inhibition of the prothrombin time (PT), in words", "setting": "Human plasma [6]", "result": "inhibited"}, {"measurement": "inhibition of the partial thromboplastin time (PTT), in words", "setting": "Human plasma [7]", "result": "inhibited"}, {"measurement": "direct Xa inhibition (in words)", "setting": "factor Xa", "result": "No evidence of direct Xa inhibition"}, {"measurement": "IC50, Tissue factor VII, X to Xa", "setting": "factor X; synthetic substrate", "result": "0.3 to 0.7", "unit": "µg/mL"}, {"measurement": "IC50", "setting": "factor X; text value for both peptides, read-out: IC50, factor X activated by tissue factor and purified factor VII", "result": "40 to 100", "unit": "nM"}, {"measurement": "inhibition of Echis carinatus venom activation of purified factor II to IIa (in words)", "setting": "prothrombin (factor II)", "result": "inhibited"}]}, {"substance": "human RNIP: synthetic polypeptide comprising amino acids 134 to 170 of SEQ ID NO:2 (LLGDFFRKSKEKIGKEFKRIVQRIKDFLRNLVPRTES)", "values": [{"measurement": "anti-coagulant activity (in words)", "setting": "coagulation", "result": "lacks significant anti-coagulant activity"}, {"measurement": "anti-coagulant activity (in words)", "setting": "coagulation; listed as Human RNIP", "result": "free from anti-coagulant activity"}]}]}
